Source: patent US9290476B2, “Methylene linked quinolinyl modulators of RORγt” (Janssen Pharmaceutica NV, priority 2012, dated 2016)
Counter-ions that a name gives are not always drawn. Like-named read-outs stand apart in the source and are kept apart here.

Assays:
[1] = system: IL-17 production by CD4 T cells; assay: Human Th17 assay (IL-17 production by CD4 T cells under Th17 differentiation); assay type: cell-based; conditions: human CD4+ T cells, IL-17 after 3 days, read-out: Human Th17 Assay, IC50 μM
Excerpt: The human Th17 assay tests the effect of RORγt modulatory compounds on IL-17 production by CD4 T cells under conditions which favor Th17 differentiation.
Total CD4^+ T cells were isolated from the peripheral blood mononuclear cells (PBMC) of healthy donors using a CD4^+ T cell isolation kit II, following the manufacturer's instructions (Miltenyi Biotec). Cells were resuspended in a medium of RPMI-1640 supplemented with 10% fetal bovine serum, penicillin, streptomycin, glutamate, and β-mercaptoethanol and were added to 96-well plates at 1.5×10^5 per 100 μL per well. 50 μL of compound at titrated concentrations in DMSO were added into each well at final DMSO concentration at 0.2%. Cells were incubated for 1 hour, then 50 μL of Th17 cell differentiation medium was added to each well. The final concentrations of antibodies and cytokines (R&D Systems) in differentiation medium were: 3×10^6/mL anti-CD3/CD28 beads (prepared using human T cell activation/expansion kit, Miltenyi Biotec), 10 μg/mL anti-IL4, 10 μg/mL anti-IFNγ, 10 ng/mL IL1β, 10 ng/mL IL23, 50 ng/mL IL6, 3 ng/mL TGFβ and 20 U/mL IL2. Cells were cultured at 37° C. and 5% CO2 for 3 days. Supernatants were collected and the accumulated IL-17 in culture was measured by using MULTI-SPOT® Cytokine Plate following manufacture's instruction (Meso Scale Discovery). The plate was read using Sector Imager 6000, and IL-17 concentration was extrapolated from the standard curve. The IC50s were determined by GraphPad.

[2] = molecular target: human RORγt LBD (Homo sapiens (Human), UniProt P51449); assay: RORγt reporter assay (GAL4-RORγt LBD luciferase in HEK293T cells); assay type: cell-based; conditions: for IC50 / RORγt reporter Assay, % inhibition @ 6 μM: HEK293T cells; for IC50: 24 hours compound treatment; for inhibition at 6 µM: HEK-293T, read-out: RORγt reporter Assay, % inhibition @ 6 μM, HEK293T cells, 6 μM
Summary of the method: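 HEK293T cells transiently co-transfected with GAL4-DBD–wild-type human RORγt LBD (pBIND) and GAL4-responsive firefly luciferase reporter (pGL4.31); renilla luciferase from pBIND normalises transfection/viability. Cells in phenol-red-free DMEM, 5% lipid-reduced FCS, treated with compound 24 h. Firefly/renilla ratio plotted against compound concentration.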

[3] = molecular target: human RORγt ligand binding domain (RORγt LBD) (Homo sapiens (Human), UniProt P51449); assay: RORγt ThermoFluor assay (thermal shift binding affinity); conditions: estimated from thermal shift
Summary of the method: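 Thermal shift used 0.065 mg/mL RORγt LBD with 60 μM 1,8-ANS in 100 mM Hepes pH 7.0, 10 mM NaCl, 2.5 mM GSH and 0.002% Tween-20, heated at 1 °C/min. Fluorescence was excited at 380–400 nm and emission read at 500 nm.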

Chain of human RORγt LBD (P51449 258-518): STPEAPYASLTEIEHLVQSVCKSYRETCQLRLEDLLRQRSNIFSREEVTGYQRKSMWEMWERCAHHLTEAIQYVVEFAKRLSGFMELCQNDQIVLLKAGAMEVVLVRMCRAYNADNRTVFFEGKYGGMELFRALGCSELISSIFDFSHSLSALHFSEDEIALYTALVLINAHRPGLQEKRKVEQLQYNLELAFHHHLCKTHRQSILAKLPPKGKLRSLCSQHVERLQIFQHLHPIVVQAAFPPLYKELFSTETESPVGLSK
Chain of human RORγt ligand binding domain (RORγt LBD) (P51449 other isoform, or with tags, fused parts or gaps): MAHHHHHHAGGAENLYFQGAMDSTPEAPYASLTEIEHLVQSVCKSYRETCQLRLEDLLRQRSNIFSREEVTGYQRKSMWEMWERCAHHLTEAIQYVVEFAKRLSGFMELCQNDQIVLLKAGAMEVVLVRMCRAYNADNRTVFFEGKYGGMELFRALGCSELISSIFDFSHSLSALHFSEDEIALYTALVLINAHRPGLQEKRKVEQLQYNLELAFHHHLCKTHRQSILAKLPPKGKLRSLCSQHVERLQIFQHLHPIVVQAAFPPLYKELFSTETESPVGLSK

Compound	IC50 ([1]; Homo sapiens, CD4+ T, 72 h) [µM]	IC50 [2] [µM]	inhibition at 6 µM [2] [%]	Kd [3] [µM]	IC50 [1] [µM]	RORγt reporter Assay, % inhibition @ 6 μM [2] [%]
COc1ccc(C(O)(c2ccc3nc(OC)c(Cc4ccc(-n5cccn5)cc4)c(Cl)c3c2)c2cncs2)cn1 (single isomer, unassigned) [Example 20B, (3-(4-(1H-pyrazol-1-yl)benzyl)-4-chloro-2-methoxyquinolin-6-yl)(6-methoxypyridin-3-yl)(thiazol-5-yl)methanol]	0.039	0.047	100	0.0014		
COc1ccc(C(O)(c2ccc3nc(OC)c(Cc4ccc(-n5cccn5)cc4)c(Cl)c3c2)c2cncs2)cn1 (single isomer, unassigned) [Example 20C, (3-(4-(1H-pyrazol-1-yl)benzyl)-4-chloro-2-methoxyquinolin-6-yl)(6-methoxypyridin-3-yl)(thiazol-5-yl)methanol]		0.06		0.0053	0.069	102
COc1nc2c(C)cc(C(O)(c3ccc(Cl)cc3)c3cncn3C)cc2c(Cl)c1Cc1ccc(-n2cccn2)cc1 (single isomer, unassigned) [Example 28C, (3-(4-(1H-pyrazol-1-yl)benzyl)-4-chloro-2-methoxy-8-methylquinolin-6-yl)(4-chlorophenyl)(1-methyl-1H-imidazol-5-yl)methanol]	0.066	0.087		0.0058		97
COc1nc2c(C)cc(C(O)(c3ccc(C(F)(F)F)nc3)c3cncn3C)cc2c(Cl)c1Cc1ccc(-n2cccn2)cc1 (single isomer, unassigned) [Example 29B, (3-(4-(1H-pyrazol-1-yl)benzyl)-4-chloro-2-methoxy-8-methylquinolin-6-yl)(1-methyl-1H-imidazol-5-yl)(6-(trifluoromethyl)pyridin-3-yl)methanol]		0.13	102	0.093	0.19	
COc1nc2c(C)cc(C(O)(c3ccc(C(F)(F)F)nc3)c3cncn3C)cc2c(Cl)c1Cc1ccc(-n2cccn2)cc1 (single isomer, unassigned) [Example 29C, (3-(4-(1H-pyrazol-1-yl)benzyl)-4-chloro-2-methoxy-8-methylquinolin-6-yl)(1-methyl-1H-imidazol-5-yl)(6-(trifluoromethyl)pyridin-3-yl)methanol]		0.081		0.0049	0.09	97
COc1nc2ccc(C(O)(c3ccc(Cl)cc3)c3cncn3C)cc2c(Cl)c1Cc1cc2ccccc2s1 (single isomer, unassigned) [Example 36C, (3-(benzo[b]thiophen-2-ylmethyl)-4-chloro-2-methoxyquinolin-6-yl)(4-chlorophenyl)(1-methyl-1H-imidazol-5-yl)methanol]	0.066	0.1		0.011		101
Cn1cncc1C(O)(c1ccc(C(F)(F)F)nc1)c1ccc2nc(C#N)c(Cc3ccc(-n4cccn4)cc3)c(C#N)c2c1 (single isomer, unassigned) [Example 72C, 3-(4-(1H-Pyrazol-1-yl)benzyl)-6-(hydroxy(1-methyl-1H-imidazol-5-yl)(6-(trifluoromethyl)pyridin-3-yl)methyl)quinoline-2,4-dicarbonitrile]	0.055		100			
Cn1cncc1C(O)(c1ccc2nc(Cl)c(Cc3ccc(-n4cccn4)cc3)c(Cl)c2c1)c1cncs1 (stereo not shown) [Example 15, (3-(4-(1H-Pyrazol-1-yl)benzyl)-2,4-dichloroquinolin-6-yl)(1-methyl-1H-imidazol-5-yl)(thiazol-5-yl)methanol.TFA]	0.024	0.013	104			
Cc1cc(C(O)(c2ccc(Cl)cc2)c2cncn2C)cc2c(Cl)c(Cc3ccc(-n4cccn4)cc3)c(Cl)nc12 (stereo not shown) [Example 27, (3-(4-(1H-Pyrazol-1-yl)benzyl)-2,4-dichloro-8-methylquinolin-6-yl)(4-chlorophenyl)(1-methyl-1H-imidazol-5-yl)methanol.TFA salt]		0.29			0.3	97
Cn1cncc1C(O)(c1ccc(C(F)(F)F)nc1)c1ccc2nc(C#N)c(Cc3ccc(-n4cccn4)cc3)c(C#N)c2c1 (stereo not shown) [Example 72B, 3-(4-(1H-Pyrazol-1-yl)benzyl)-6-(hydroxy(1-methyl-1H-imidazol-5-yl)(6-(trifluoromethyl)pyridin-3-yl)methyl)quinoline-2,4-dicarbonitrile]	0.025		99			

More lines, now with the values ahead:

IC50 ([1]; Homo sapiens, CD4+ T, 72 h) [µM]	IC50 [2] [µM]	inhibition at 6 µM [2] [%]	Kd [3] [µM]	IC50 [1] [µM]	RORγt reporter Assay, % inhibition @ 6 μM [2] [%]	Compound
0.0014	0.0042	100	0.0014			COc1nc2ccc(C(O)(c3cnnn3C)C3CN(C(C)=O)C3)cc2c(Cl)c1Cc1ccc(C(F)(F)F)cc1 (racemic) [Example 97A, 1-(3-((4-Chloro-2-methoxy-3-(4-(trifluoromethyl)benzyl)quinolin-6-yl)(hydroxy)(1-methyl-1H-1,2,3-triazol-5-yl)methyl)azetidin-1-yl)ethanone]
		98		0.36		COc1nc2ccc(C(O)(c3ccc(C)nc3C)c3cnnn3C)cc2c(Cl)c1Cc1ccc(C(F)(F)F)cc1 (single isomer, unassigned) [Example 77B, (4-chloro-2-methoxy-3-(4-(trifluoromethyl)benzyl)quinolin-6-yl)(2,6-dimethylpyridin-3-yl)(1-methyl-1H-1,2,3-triazol-5-yl)methanol]
				0.0021	100	COc1nc2ccc(C(O)(c3ccc(C)nc3C)c3cnnn3C)cc2c(Cl)c1Cc1ccc(C(F)(F)F)cc1 (single isomer, unassigned) [Example 77C, (4-chloro-2-methoxy-3-(4-(trifluoromethyl)benzyl)quinolin-6-yl)(2,6-dimethylpyridin-3-yl)(1-methyl-1H-1,2,3-triazol-5-yl)methanol]
0.004					99	COc1nc2ccc(C(O)(c3ccc(C)nc3C)c3cnnn3C)cc2c(C#N)c1Cc1ccc(C(F)(F)F)cc1 (single isomer, unassigned) [Example 78C, 6-((2,6-Dimethylpyridin-3-yl)(hydroxy)(1-methyl-1H-1,2,3-triazol-5-yl)methyl)-2-methoxy-3-(4-(trifluoromethyl)benzyl)quinoline-4-carbonitrile]
		92		0.05		COc1nc2ccc(C(O)(c3cnnn3C)c3cnc(C)n3C)cc2c(Cl)c1Cc1ccc(C(F)(F)F)cc1 (single isomer, unassigned) [Example 80B, (4-chloro-2-methoxy-3-(4-(trifluoromethyl)benzyl)quinolin-6-yl)(1,2-dimethyl-1H-imidazol-5-yl)(1-methyl-1H-1,2,3-triazol-5-yl)methanol]
				0.002	93	COc1nc2ccc(C(O)(c3cnnn3C)c3cnc(C)n3C)cc2c(Cl)c1Cc1ccc(C(F)(F)F)cc1 (single isomer, unassigned) [Example 80C, (4-chloro-2-methoxy-3-(4-(trifluoromethyl)benzyl)quinolin-6-yl)(1,2-dimethyl-1H-imidazol-5-yl)(1-methyl-1H-1,2,3-triazol-5-yl)methanol]
		97		0.022		CCc1nc2ccc(C(O)(c3cnnn3C)C3CN(S(C)(=O)=O)C3)cc2c(Cl)c1Cc1ccc(C(F)(F)F)cc1 (single isomer, unassigned) [Example 91B, (4-Chloro-2-ethyl-3-(4-(trifluoromethyl)benzyl)quinolin-6-yl)(1-methyl-1H-1,2,3-triazol-5-yl)(1-(methylsulfonyl)azetidin-3-yl)methanol]
				0.0025	102	CCc1nc2ccc(C(O)(c3cnnn3C)C3CN(S(C)(=O)=O)C3)cc2c(Cl)c1Cc1ccc(C(F)(F)F)cc1 (single isomer, unassigned) [Example 91C, (4-Chloro-2-ethyl-3-(4-(trifluoromethyl)benzyl)quinolin-6-yl)(1-methyl-1H-1,2,3-triazol-5-yl)(1-(methylsulfonyl)azetidin-3-yl)methanol]
